This is an account of results in patent publication US20010056104A1, “Treatment of ocular hypertension and glaucoma” (priority 2000, published 2001).

Data set [1] has as its system prostaglandin receptor sites in bovine corpus luteal membranes. The data set is described as follows: Ligand binding assay in bovine corpus luteal membranes. The settings on record: for displacement of bound 3H-unoprostone isopropyl by unlabeled competing ligand: competition studies. Here is the method: (§1) In ligand binding studies, the specificity of labeled unoprostone isopropyl and the metabolite binding to prostaglandin receptor sites in bovine corpus luteal membranes was determined. This tissue expresses most of the PG receptors including an abundance of FP receptors. In signal transduction studies, the mobilization of intracellular calcium using Fluorescence Imaging technique in the primary culture of human ciliary muscle cells and cyclic AMP generation in rabbit iris-ciliary body was measured.
This method is well described in the literature. […] Free unbound ligands were separated by rapid filtration using a millipore filtration assembly. Membrane bound radioactivity retained by the filter was counted. It is important to define the following terms for appreciation of the binding data:
Total binding is defined as the amount bound in the absence of unlabeled ligand.
Specific binding is defined as the binding displaced by unlabeled ligand.
Non-specific binding is the binding not displaced by unlabeled ligand.

Data set [2] has as its system human ciliary muscle cells. Kind of data set: Intracellular calcium mobilization (Fura 2-AM) in human ciliary muscle cells. Format: cell-based. To be noted: FP receptor agonist control, concentration not given. Here is the method: as §1
Human ciliary muscle cells at confluency were loaded with Fura 2-AM. Cells in a petri dish were put in a jacketed chamber mounted on the microscope platform. The chamber was maintained at 37° C. by thermostatically controlled water circulating through the chamber jacket. The cells were then exposed to the excitation wavelengths of 334 and 380 nm with an emission wavelength of 510 nm. Cells were perfused with HEPES buffer with or without test compounds. The intracellular calcium was visualized and photographed using Attofluor RatioVision software program and Zeiss fluorescence microscope.
For orientation: Calcium flux is commonly read through the fluorescence of an indicator in the cells.

In another data set the target is FP-receptor (Felis catus, UniProt A0ABI7XJ69). The data set is described as follows: Functional FP-receptor study, cat iris sphincter muscle contraction. Format: cell-based. The settings on record: for EC50: text restating Table I, read-out: concentration needed to stimulate the FP-receptor at 50% efficacy. Here is the method: Functional FP-receptor studies were performed using iris sphincter muscles from cat eyes. The eyes were either used directly after enucleation or stored in ice cold saline overnight. The iris sphincter muscles were prepared, cut in halfs, and mounted in thermostated (37° C.) tissue baths with oxygenated modified Kreb's solution containing indomethacin (2.8×10^−6 M), atropine (10^−7 M) and propranolol (10^−7 M). A resting tension of 150 mg was applied, and the contractile force was measured isometrically after cumulative dosing of test compounds. A manual or automated tissue bath system (Buxco, STC 400) was used for the experiments. For each tissue sample the maximal response was normalized to 100%. The mean response of two to four different preparations was calculated.
FP-receptor, sequence (A0ABI7XJ69 entry or part of it): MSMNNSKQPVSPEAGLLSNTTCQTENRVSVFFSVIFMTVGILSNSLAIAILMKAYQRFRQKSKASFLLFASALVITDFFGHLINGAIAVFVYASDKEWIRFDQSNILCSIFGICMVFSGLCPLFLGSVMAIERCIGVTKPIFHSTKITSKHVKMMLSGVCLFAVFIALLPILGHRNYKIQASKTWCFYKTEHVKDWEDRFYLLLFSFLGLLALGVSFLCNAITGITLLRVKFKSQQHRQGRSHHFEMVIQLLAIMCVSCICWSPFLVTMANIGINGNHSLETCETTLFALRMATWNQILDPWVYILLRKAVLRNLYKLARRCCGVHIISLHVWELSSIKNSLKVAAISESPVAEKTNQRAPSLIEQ
(§2) Concentration-effect curves were fitted to the data using the logistic sigmoid function.

Another data set concerns the target T1, EP3-receptors (Cavia porcellus, UniProt A0A286XLZ9).
T1 sequence (A0A286XLZ9 with tags, fused parts or gaps): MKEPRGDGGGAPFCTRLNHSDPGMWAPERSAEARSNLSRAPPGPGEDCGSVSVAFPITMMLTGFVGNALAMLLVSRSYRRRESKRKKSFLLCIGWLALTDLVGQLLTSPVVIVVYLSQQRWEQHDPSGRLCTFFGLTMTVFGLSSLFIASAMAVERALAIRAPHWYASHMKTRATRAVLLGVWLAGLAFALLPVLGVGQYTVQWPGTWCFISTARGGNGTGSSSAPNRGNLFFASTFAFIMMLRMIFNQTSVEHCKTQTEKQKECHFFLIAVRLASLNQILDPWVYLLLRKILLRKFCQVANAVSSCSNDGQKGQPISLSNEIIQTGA
Kind of data set: EP3-receptor activity, guinea-pig vas deferens. Format: cell-based. The settings on record: for EC50: smooth muscle bath, guinea-pig vas deferens. Here is the method: Guinea-pig vas deferens was used to assess the effect on EP3-receptors. Tissue segments of about 10 mm were mounted in tissue baths and the experiments were performed essentially in the same way as described for the guinea-pig circular ileum. Concentration-effect curves were fitted to the data using the logistic sigmoid function.

The target in a further data set is T2, EP1-receptor (Bos taurus, UniProt F1MUY4).
T2 sequence (F1MUY4 1-407): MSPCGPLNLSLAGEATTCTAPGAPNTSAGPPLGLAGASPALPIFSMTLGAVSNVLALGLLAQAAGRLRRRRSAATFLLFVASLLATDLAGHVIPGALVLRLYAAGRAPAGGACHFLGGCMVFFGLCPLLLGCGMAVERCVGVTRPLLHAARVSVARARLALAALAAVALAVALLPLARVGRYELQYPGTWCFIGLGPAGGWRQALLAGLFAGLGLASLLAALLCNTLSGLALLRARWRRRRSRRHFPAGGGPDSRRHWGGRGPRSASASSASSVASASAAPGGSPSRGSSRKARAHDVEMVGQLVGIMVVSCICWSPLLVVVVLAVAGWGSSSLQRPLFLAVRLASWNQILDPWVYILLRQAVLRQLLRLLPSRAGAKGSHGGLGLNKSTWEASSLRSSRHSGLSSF
Kind of data set: EP1-receptor activity, bovine iris sphincter muscle. It is filed as cell-based.
Description: Iris sphincter muscles from bovine eyes were used for studies of EP1-receptor responses. Freshly enucleated bovine eyes were transported on ice from a slaughterhouse.
as §2

The target in a further data set is EP2-receptors (Cavia porcellus, UniProt A0A286XDB1). Kind of data set: EP2-receptor activity, guinea-pig ileum twitch inhibition. It is filed as cell-based. To be noted: for EC50: smooth muscle bath, guinea-pig ileum. The source says: Segments of guinea-pig ileum were used to study the effect on EP2-receptors. Male guinea pigs were killed with a blow to the head and bled from the carotid arteries. Circular rings (2-3 mm wide) were taken from the ileum about 10 cm from the caecum, A resting tension of 1 g was applied and the preparation was stimulated by using a Gras S88 stimulator delivering trains of square pulses (frequency 7.5 Hz, pulse duration 0.1 msec, train duration 4 sec) to two parallel platinum electrodes in the bath. The voltage over the electrodes was approximately 20V, and the interval between trains was 100 seconds. The peak contractile force at each stimulation train was measured. Test compounds were added cumulatively, and the inhibitory effect on the muscle twitch was evaluated. […] Concentration-effect curves were fitted to the data using the logistic sigmoid function.
EP2-receptors, sequence (A0A286XDB1 1-359): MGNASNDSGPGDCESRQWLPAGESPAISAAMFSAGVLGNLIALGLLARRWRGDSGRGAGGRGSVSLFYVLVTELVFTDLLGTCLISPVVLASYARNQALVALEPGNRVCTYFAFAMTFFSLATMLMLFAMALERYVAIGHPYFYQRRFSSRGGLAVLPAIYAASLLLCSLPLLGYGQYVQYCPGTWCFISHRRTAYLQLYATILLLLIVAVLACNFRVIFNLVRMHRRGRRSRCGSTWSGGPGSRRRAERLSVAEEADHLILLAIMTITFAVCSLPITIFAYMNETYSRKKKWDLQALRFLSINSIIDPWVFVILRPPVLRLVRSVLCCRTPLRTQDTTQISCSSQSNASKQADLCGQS

For data set [3] the following is noted: treated for about three or more months; cited from earlier work.
For data set [4] the following is noted: cynomolgus monkeys; cited from earlier work.
For the next data set, the target named is FP receptor (Homo sapiens, UniProt P43088). To be noted: background statement; cited from earlier work.
FP receptor, sequence (P43088 whole entry): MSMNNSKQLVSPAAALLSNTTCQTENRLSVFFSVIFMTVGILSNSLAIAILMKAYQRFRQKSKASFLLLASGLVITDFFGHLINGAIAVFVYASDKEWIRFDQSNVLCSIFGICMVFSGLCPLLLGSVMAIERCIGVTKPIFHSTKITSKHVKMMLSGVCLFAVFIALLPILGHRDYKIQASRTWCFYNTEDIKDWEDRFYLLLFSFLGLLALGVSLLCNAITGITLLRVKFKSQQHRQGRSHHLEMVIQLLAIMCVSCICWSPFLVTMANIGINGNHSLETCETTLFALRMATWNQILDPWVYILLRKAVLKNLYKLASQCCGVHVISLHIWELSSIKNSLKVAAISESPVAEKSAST
Setting [5] is: competing ligand PGF2α 0.062 μM.
Where [6] appears, read: radioligand conc. 8.0 nM (3H-PGF2α).

Some results are limits rather than exact numbers.

For 17-Phenyl trinor PGE1, the “displacement of bound 3H-unoprostone isopropyl by unlabeled competing ligand” value in data set [1] is recorded as “did not displace”.

Regarding `O=C(O)CCC/C=C\C[C@@H]1[C@@H](/C=C/[C@@H](O)COc2cccc(C(F)(F)F)c2)[C@H](O)C[C@@H]1O` (racemic) [Fluprostenol], in data set [2], the “mobilization of intracellular calcium” value is listed as “mobilized calcium”.

For the molecule `O=C(O)CCCC=CCC1C(O)CC(O)C1CCC(=O)CCc1ccccc1` (centres unmarked) [15-keto Latanoprost Acid], the “potency on the FP receptor relative to latanoprost acid” value on FP-receptor (from Table I EC50 values) was “at least ten times less potent”. Also, the EC50 is 0.26 µM on FP-receptor; greater than 100 µM at EP3-receptors; 28 µM on EP1-receptor (read-out: EC50 EP1, smooth muscle bath, bovine iris sphincter); greater than 100 µM at EP2-receptors. Also, on EP3-receptors (in words), the “activity on EP3 receptor” value is reported as “virtually no activity”. The “activity on EP1 receptor” value at EP1-receptor (in words) is “virtually no activity”. The “activity on EP2 receptor” value on EP2-receptors (in words) is on record as “virtually no activity”.

In the case of `O=C(O)CCCCCCC1C(=O)NC(=O)N1CCC(O)C1CCCCC1` (centres unmarked) [BW245C], the “displacement of bound 3H-unoprostone isopropyl by unlabeled competing ligand” value in data set [1] is “did not displace”.

Take `CCCC1([C@H](O)C/C=C/[C@H]2[C@H](O)CC(=O)[C@@H]2CCCCCCC(=O)OC)CCC1` [Butaprost]: in data set [1], the “displacement of bound 3H-unoprostone isopropyl by unlabeled competing ligand” value is given as “did not displace”.

For the molecule `O=C(O)CCC/C=C\C[C@@H]1[C@@H](CC[C@@H](O)CCc2ccccc2)[C@H](O)C[C@@H]1O` [Latanoprost Acid], the EC50 on FP-receptor turned out to be 0.01 µM; at EP3-receptors, 28 µM; at EP2-receptors it was 530 µM.

As for `CC(C)OC(=O)CCC/C=C\C[C@@H]1[C@@H](CC[C@@H](O)CCc2ccccc2)[C@H](O)C[C@@H]1O` [Latanoprost, 13,14-dihydro-17-phenyl-18,19,20-trinor PGF2α isopropyl ester], the “receptor selectivity (FP vs other prostaglandin receptors)” value at FP-receptor (from Table I) is on record as “selective agonist for the FP receptor”. In addition, the “human patients with brown pigmentation of the iris” value in data set [3] was no less than 10%. Besides, the iridial pigmentation entry in data set [4] was “induced increased iridial pigmentation”. The “specific binding affinity for the FP receptor” value at FP receptor was “substantial specific binding affinity”.

As to `CCCCCC(O)C=CC1C(O)CC(=O)C1CC=CCCCC(=O)OC(C)C` (centres unmarked) [PGE2-IE], in data set [4], the iridial pigmentation result is on record as “induced increased iridial pigmentation”.

`CCCCC[C@H](O)/C=C/[C@@H]1[C@@H](C/C=C\CCCC(=O)OC(C)C)[C@@H](O)C[C@H]1O` [PGF2α-IE]: the iridial pigmentation entry in [4] is given as “induced increased iridial pigmentation”.

Consider `CCCCC[C@H](O)/C=C/[C@@H]1[C@@H](C/C=C\CCCC(=O)O)[C@@H](O)C[C@H]1O` [PGF2α], for which the “specific binding to bovine corpus luteal membranes (in words)” value in [1] is “bound specifically”. Also, the “Specific Binding (3H-PGF2α)” value in data set [1] (setting [5]) is listed as 0.07 fmoles/mg Protein; in [1] (competing ligand PGF2α 0.25 μM), 0.15 fmoles/mg Protein; in data set [1] (competing ligand PGF2α 0.5 μM), 0.25 fmoles/mg Protein; in data set [1] (competing ligand PGF2α 8.0 μM), 0.42 fmoles/mg Protein. Further, the Total 3H-PGF2α binding in [1] (setting [5]), in data set [1] (competing ligand PGF2α 0.25 μM), in data set [1] (competing ligand PGF2α 0.5 μM) and in data set [1] (competing ligand PGF2α 8.0 μM) was 0.56 fmol/mg protein each time. The “displacement of bound 3H-unoprostone isopropyl by unlabeled competing ligand” value in data set [1] is on record as “did not displace”. In addition, the “Specific Binding” value in [1] (radioligand conc. 2.0 nM) is on record as 120.0 ± 15.0 fmoles/mg protein; in data set [1] (setting [6]) it was 423.0 ± 40.0 fmoles/mg protein. In addition, the “Total Binding” value was 150.0 ± 16.0 fmoles/mg protein in [1] (radioligand conc. 2.0 nM), 325.0 ± 25.0 fmoles/mg protein in [1] (radioligand conc. 4.0 nM) and 505.0 ± 75.0 fmoles/mg protein in [1] (setting [6]).

As for `CCCCC[C@H](O)/C=C/[C@@H]1[C@@H](C/C=C\CCCC(=O)O)[C@H]2CO[C@@H]1C2` [U46619], in data set [1], the “displacement of bound 3H-unoprostone isopropyl by unlabeled competing ligand” value was “did not displace”.

With `CC#CCC(C)[C@H](O)/C=C/[C@@H]1[C@H]2C/C(=C/CCCC(=O)O)C[C@H]2C[C@H]1O` (some centres unmarked) [iloprost], the “displacement of bound 3H-unoprostone isopropyl by unlabeled competing ligand” value in [1] is listed as “did not displace”.
